Data as given in patent US5502164A, “Peptide compounds having therapeutic activity” (priority 1992, dated 1996).
Where a SMILES comes first, the peptide text is derived from it. [ ]: non-standard residue; d: D form. The star is where a group is joined. dNMeD = CN[C@H](CC(=O)O)C(=O)O; Nle = CCCC[C@H](N)C(=O)O; X1 = O=C(Cc1ccc(O)cc1)*

Target: T1, CCK-A receptors in rat pancreatic membranes (Rattus norvegicus, UniProt P30551)
T1 construct: CCK-A receptors in rat pancreatic membranes; from tissue; host or cells: rat pancreas (membranes)
T1 sequence (P30551 1-444): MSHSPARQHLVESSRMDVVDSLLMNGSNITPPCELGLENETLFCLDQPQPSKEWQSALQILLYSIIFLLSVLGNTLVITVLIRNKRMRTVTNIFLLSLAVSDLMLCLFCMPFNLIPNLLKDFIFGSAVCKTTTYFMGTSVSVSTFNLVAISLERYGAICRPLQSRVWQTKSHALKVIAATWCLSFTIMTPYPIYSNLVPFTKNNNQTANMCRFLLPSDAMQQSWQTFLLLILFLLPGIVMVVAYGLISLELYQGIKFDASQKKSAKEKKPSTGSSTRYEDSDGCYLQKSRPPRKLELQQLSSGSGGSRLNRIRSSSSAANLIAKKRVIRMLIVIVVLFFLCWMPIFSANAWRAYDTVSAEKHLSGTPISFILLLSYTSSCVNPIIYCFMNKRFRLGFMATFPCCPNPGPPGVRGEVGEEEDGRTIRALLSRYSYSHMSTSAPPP
Experiment: Test B: CCK-A binding
Settings: against Bolton Hunter 125I-CCK-8 and 3H-L364718, read-out: binding constant (Ki) at CCK-A receptors
Method: Evaluation of a test compound for its ability to bind to CCK-A receptors in rat pancreatic membranes is measured against the binding of Bolton Hunter^125 I-CCK-8 and ^3 H-L364718 to rat pancreas according to the procedures of Chang, Lotti, Chan and Kunkel (Molecular Pharmacology, 30:212-216, 1986).

In the case of `CCCC[C@H](NC(=O)Cc1ccc(O)cc1)C(=O)NCC(=O)N[C@@H](Cc1c[nH]c2ccccc12)C(=O)N[C@@H](CCCC)C(=O)N(C)[C@H](CC(=O)O)C(=O)N[C@@H](Cc1ccccc1)C(N)=O` [Example 49, Hpa-Ahx-Gly-Trp-Ahx-MeDAsp-Phe-NH2] (X1-[Nle]GW[Nle][dNMeD]F-NH2), the Ki is reported as 0.03 nM.
